Where two headings read alike, the source gives them in different places.
Key:
CYP2C8 = molecular target: T1, CYP2C8 (Homo sapiens, UniProt P10632); assay: in vitro; conditions: both, pH 7.4
T1 sequence (P10632 1-490): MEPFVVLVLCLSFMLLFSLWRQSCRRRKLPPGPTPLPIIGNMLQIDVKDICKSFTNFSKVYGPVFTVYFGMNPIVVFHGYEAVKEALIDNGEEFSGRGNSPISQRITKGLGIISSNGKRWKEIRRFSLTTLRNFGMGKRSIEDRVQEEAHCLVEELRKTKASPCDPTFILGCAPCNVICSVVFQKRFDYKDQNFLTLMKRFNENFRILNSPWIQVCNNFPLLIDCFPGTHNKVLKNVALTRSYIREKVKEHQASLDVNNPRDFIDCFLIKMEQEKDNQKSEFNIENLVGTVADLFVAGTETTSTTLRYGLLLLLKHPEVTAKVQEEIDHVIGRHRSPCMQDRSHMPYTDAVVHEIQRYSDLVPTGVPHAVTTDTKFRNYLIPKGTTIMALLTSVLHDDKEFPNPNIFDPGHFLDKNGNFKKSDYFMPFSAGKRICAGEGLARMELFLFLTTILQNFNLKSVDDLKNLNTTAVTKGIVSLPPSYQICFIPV

CYP2B6 [1] = molecular target: T2, CYP2B6 (Homo sapiens, UniProt P20813); assay: biochemical
T2 sequence (P20813 1-491): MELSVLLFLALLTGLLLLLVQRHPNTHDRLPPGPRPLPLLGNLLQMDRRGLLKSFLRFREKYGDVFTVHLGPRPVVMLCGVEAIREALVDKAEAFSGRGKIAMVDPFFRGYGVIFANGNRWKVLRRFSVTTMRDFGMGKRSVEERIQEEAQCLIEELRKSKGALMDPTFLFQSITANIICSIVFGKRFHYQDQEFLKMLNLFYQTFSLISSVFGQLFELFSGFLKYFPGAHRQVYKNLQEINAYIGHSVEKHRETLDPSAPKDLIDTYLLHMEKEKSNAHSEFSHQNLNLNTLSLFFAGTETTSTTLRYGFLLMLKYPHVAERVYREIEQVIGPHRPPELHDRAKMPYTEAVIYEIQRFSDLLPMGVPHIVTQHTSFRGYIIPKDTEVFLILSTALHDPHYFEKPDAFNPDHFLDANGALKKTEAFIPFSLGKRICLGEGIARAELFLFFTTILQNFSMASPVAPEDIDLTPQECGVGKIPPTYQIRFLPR

[2] = Stability in beagle dog plasma
Method: Pooled (N≥3) male SD rat, beagle dog and mixed gender human plasma with EDTA-K2 as anticoagulant were purchased from BioIVT (NY, USA) and stored in a −70° C. freezer before use.
Incubations were conducted in 96-well plate format. The time points defined for this study are 0, 5, 15, 30 and 60 minutes.
For positive controls, the rat plasma was spiked with enalapril, the dog plasma spiked with bisacodyl and the human plasma was spiked with propantheline. All spiked plasma sample plates were incubated in a water bath at 37° C. with shaking.
At end of each time point, samples were immediately quenched with three volume of cold quenching solution. All sample plates were mixed thoroughly by shaking for approximately 10 minutes and centrifuged at 3220×g for 15 minutes. Subsequently, 100 μL of supernatant was removed from each well, mixed with 100 μL water in a new 96-well plate and subjected to LC-MS/MS analysis.
Concentrations of test article, metabolite, and control compounds in the samples were analyzed by LC-MS/MS semi-quantitatively. […] The peak area ratios of analyte/internal standard were used to semi-quantitatively determine the concentrations.
The peak area ratios (PAR) of analyte/internal standard were used to semi-quantitatively determine the concentration of test article and control compounds, and calculate the percent remaining with the following equation:
The elimination rate (ke) was calculated from a log linear plot of % remaining versus time. The half-life was calculated using the following equation:

[3] = Equilibrium dialysis control in DPBS and stability in DPBS, plasma and brain homogenate; type: in vitro ADME, mouse; conditions: for % Recovery / % Unbound: DPBS
Method: Samples of spiked plasma and blank buffer (Dulbecco's phosphate-buffered saline, DPBS) and spiked brain homogenate and blank DPBS added to opposing sides of a dialysis membrane were collected from triplicate equilibrium dialysis chambers prior to (t=0) and following 1, 2, 4 and 6 hours of incubation at 37° C. […] The LC-MS/MS method(s) for analytes (Compound I-19, Compound A and Compound B) was cross-qualified for the analysis of the DPBS samples.
A secondary stock solution of 200 μM (74.2 ug/mL) will be prepared in DMSO. This secondary stock solution will then be diluted 100-fold to 2 μM ([…]) with male CD-1 mouse plasma and brain homogenate (1:2 v/v brain:Dulbecco's phosphate buffered saline, pH 7-7.2) or buffer (DPBS).
To 2.97 mL aliquots of thawed mouse plasma or brain homogenate warmed to 37° C., 30 ul aliquots of the secondary stock solution of the test compound will be added for final concentrations of 2 μM (0.742 ug/mL). An appropriate volume of warmed buffer (DPBS) will also be spiked with the test compound at a concentration of 2 μM ([…]). Triplicate aliquots (50 μL) of each spiked plasma, brain homogenate and buffer solution will be collected prior to dialysis into labeled 1.5 mL polypropylene tubes and then stored at approximately −80° C. until bioanalysis.

CYP2C19 = CYP2C19 (Homo sapiens, UniProt P33261)
CYP1A2 = molecular target: T3, CYP1A2 (Homo sapiens, UniProt P05177)
T3 sequence (P05177 1-516): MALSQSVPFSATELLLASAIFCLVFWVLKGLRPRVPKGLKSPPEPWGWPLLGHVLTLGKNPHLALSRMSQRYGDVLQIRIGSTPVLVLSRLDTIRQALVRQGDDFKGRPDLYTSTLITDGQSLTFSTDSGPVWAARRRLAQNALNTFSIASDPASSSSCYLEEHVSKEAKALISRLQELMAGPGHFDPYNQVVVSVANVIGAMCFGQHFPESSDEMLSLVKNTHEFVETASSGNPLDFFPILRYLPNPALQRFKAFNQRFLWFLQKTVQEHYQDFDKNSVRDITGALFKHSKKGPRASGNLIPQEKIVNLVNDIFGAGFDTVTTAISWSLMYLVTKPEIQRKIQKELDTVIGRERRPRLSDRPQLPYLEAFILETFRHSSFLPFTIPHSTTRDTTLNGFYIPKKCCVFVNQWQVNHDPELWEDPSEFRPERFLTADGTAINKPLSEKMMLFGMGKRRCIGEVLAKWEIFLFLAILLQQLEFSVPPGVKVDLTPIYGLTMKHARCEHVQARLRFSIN

CYP2C9 = CYP2C9 (Homo sapiens, UniProt P11712)
CYP2B6 [4] = molecular target: T2, CYP2B6
[5] = dialysis time 1 h, 2 μM, 37° C.
[6] = dialysis time 2 h, 2 μM, 37° C.
[7] = dialysis time 4 h, 2 μM, 37° C.
[8] = dialysis time 6 h, 2 μM, 37° C.
[9] = pooled human liver microsomes, 30 min

CYP2C9, sequence (P11712 whole entry): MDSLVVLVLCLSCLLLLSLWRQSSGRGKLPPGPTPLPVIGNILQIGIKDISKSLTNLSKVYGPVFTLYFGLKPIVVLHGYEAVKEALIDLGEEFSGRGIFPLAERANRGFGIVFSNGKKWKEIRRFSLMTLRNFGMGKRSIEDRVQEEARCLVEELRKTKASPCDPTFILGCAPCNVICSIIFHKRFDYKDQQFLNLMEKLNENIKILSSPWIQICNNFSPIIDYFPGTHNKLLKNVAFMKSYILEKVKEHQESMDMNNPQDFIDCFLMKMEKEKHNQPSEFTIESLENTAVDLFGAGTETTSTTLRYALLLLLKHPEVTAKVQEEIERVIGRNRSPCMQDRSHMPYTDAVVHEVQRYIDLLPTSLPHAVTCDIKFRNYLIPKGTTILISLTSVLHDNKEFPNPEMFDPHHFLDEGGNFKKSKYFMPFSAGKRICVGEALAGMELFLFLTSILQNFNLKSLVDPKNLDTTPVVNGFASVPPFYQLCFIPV
CYP2C19, sequence (P33261 whole entry): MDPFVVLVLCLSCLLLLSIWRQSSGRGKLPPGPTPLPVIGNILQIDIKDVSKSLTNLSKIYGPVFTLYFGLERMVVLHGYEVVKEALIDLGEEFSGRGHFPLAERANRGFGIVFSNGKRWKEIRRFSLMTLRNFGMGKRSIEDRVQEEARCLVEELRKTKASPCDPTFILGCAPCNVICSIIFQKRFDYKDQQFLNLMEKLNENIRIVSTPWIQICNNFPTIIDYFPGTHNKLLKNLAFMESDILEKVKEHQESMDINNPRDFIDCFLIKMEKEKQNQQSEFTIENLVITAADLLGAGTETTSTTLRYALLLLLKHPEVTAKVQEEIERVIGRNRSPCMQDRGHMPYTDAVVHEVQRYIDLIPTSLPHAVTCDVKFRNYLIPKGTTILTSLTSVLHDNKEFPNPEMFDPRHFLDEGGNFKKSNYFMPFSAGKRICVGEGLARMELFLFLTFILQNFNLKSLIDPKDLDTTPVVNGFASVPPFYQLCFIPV

Molecule OC1(c2ccc(Cl)cc2)c2ccccc2C2=NCCN21 (stereo not shown) [Compound A, 5-(4-chlorophenyl)-2,3-dihydroimidazo[1,2-b]isoindol-5-ol, reference compound] has an inhibition at 10 µM (CYP2C8) of 48.9% and an IC50 (CYP2B6 [1]) of 0.092 µM.

For COCCOC1(c2ccc(Cl)cc2)c2ccccc2C2=NCCN21 (stereo not shown) [Compound I-4], the “Compound A formed (Aa/Ai)” value ([2]; 0 min) was 0.48, the “% Remaining” value ([2]; 2.0 μM, 0 min) was 100% and the “Aa/Ai Mean (N = 2)” value ([2]; 2.0 μM, 0 min) was 2.24. For the same molecule, the “% Remaining” value ([2]; 2.0 μM, 5 min) was 93.5%, the “Aa/Ai Mean (N = 2)” value ([2]; 2.0 μM, 5 min) was 2.10 and the “% Remaining” value ([2]; 2.0 μM, 15 min) was 92.0%. For the same molecule, the “Aa/Ai Mean (N = 2)” value ([2]; 2.0 μM, 15 min) was 2.07, the “% Remaining” value ([2]; 2.0 μM, 30 min) was 89.2% and the “Aa/Ai Mean (N = 2)” value ([2]; 2.0 μM, 30 min) was 2.00. For the same molecule, the “% Remaining” value ([2]; 2.0 μM, 60 min) was 83.7%, the “Aa/Ai Mean (N = 2)” value ([2]; 2.0 μM, 60 min) was 1.88 and the T1/2 ([2]; 2.0 μM, 60 min incubation) was over 3.12 h. For the same molecule, the “Compound A formed (Aa/Ai)” value ([2]; 5 min) was 0.46, the “Compound A formed (Aa/Ai)” value ([2]; 15 min) was 0.46 and the “Compound A formed (Aa/Ai)” value ([2]; 30 min) was 0.42. The “Compound A formed (Aa/Ai)” value ([2]; 60 min) was 0.39.

With Clc1ccc(C2(OCC3OCCO3)c3ccccc3C3=NCCN32)cc1 (stereo not shown) [Compound I-19] the “Stability in DPBS, plasma and brain homogenate” value ([3]; 2 μM, 37° C., 6 hours) was “unstable in all three matrices”, the “% unbound in DPBS” value ([3]; 2 μM, 6 hours of dialysis) was 94.0±5.12% and the “% recovery, DPBS alone” value ([3]; 6 hours of dialysis) was 20.2±0.461%. For the same molecule, the “% Recovery” value [3, 5] was 64.7 ± 3.04%, the “% Unbound” value [3, 5] was 40.3 ± 3.69% and the “% Recovery” value [3, 6] was 55.5 ± 2.08%. The “% Unbound” value [3, 6] was 81.9 ± 5.87%, the “% Recovery” value [3, 7] was 32.6 ± 1.05% and the “% Unbound” value [3, 7] was 91.1 ± 4.19%. The “% Recovery” value [3, 8] was 20.2 ± 0.461%, the “% Unbound” value [3, 8] was 94.0 ± 5.12% and the “Inhibition at Highest Test Article Concentration” value (CYP2C19; 2C19, Mephenytoin, at 50 μM) was 83.2 at 50 μM %. The IC50 (CYP2C19; microsomes) was 17.3 µM, the “Inhibition at Highest Test Article Concentration” value (CYP1A2; 1A2, Phenacetin, at 50 μM) was 18.2 at 50 μM % and the IC50 (CYP1A2; [9]) was “did not inhibit”. The “Inhibition at Highest Test Article Concentration” value (CYP2C9; 2C9, Diclofenac, at 50 μM) was 53.3 at 50 μM %, the IC50 (CYP2C9; [9]) was “did not inhibit” and the “Inhibition at Highest Test Article Concentration” value (CYP2B6 [4]; 2B6, Bupropion, at 50 μM) was 77.2 at 50 μM %. The IC50 (CYP2B6 [4]; microsomes) was 7.44 µM.
